Results taken from PMC12476894, “Identification of α‑Azacyclic Acetamide-Based Inhibitors of P. falciparum Na^+ Pump (PfATP4) with Fast-Killing Asexual Blood-Stage Antimalarial Activity by Phenotypic Screening” (ACS Infectious Diseases, 2025).
Where two headings read alike, the source gives them in different places.

How the values were obtained:
[1] = tested on: P. falciparum Dd2 (PfDd2) parasites; assay: 72 h SYBR Green growth inhibition, ABS P. falciparum Dd2 (Phillips Lab); format: cell-based, Plasmodium falciparum; settings: read-out: PfDd2 EC50
[2] = tested on: P. falciparum 3D7 parasites (Pf3D7); assay: 72 h SYBR Green growth inhibition, ABS P. falciparum 3D7 (Phillips Lab); format: cell-based, Plasmodium falciparum; settings: for EC50: 72 h SYBR Green assay, mean ± SEM (n); for reduction of activity relative to 2 / activity of analogs relative to parent 2 or 3 (in words): P. falciparum 3D7 and Dd2 parasites; for reduction of activity relative to 2: analogs of 2
[3] = 72 h SYBR Green assay, mean ± SEM (n)

In the case of `Cc1ccnc(NC(=O)Cn2cccc2-c2nc(-c3ccc(Cl)cc3)cs2)c1` [compound 7, 2-(2-(4-(4-chlorophenyl)-1,3-thiazol-2-yl)-1H-pyrrol-1-yl}-N-(4-methylpyridin-2-yl)acetamide], the EC50 [1, 3] is reported as 14 ± 0.58 µM, the EC50 [2] is reported as 15 ± 2.4 µM and the “reduction of activity relative to 2” value [2] is reported as 10–20 fold.
With `Cc1cccnc1NC(=O)Cn1cccc1-c1nc(-c2ccc(Cl)cc2)cs1` [compound 8, 2-(2-(4-(4-chlorophenyl)-1,3-thiazol-2-yl)-1H-pyrrol-1-yl)-N-(3-methylpyridin-2-yl)acetamide] the EC50 [1, 3] was over 30 µM, the EC50 [2] was over 30 µM and the “activity of analogs relative to parent 2 or 3 (in words)” value [2] was “complete loss of activity”.
With `Cc1cccc(NC(=O)Cn2cccc2-c2nc(-c3ccccc3)cs2)c1` [compound 9, N-(3-methylphenyl)-2-[2-(4-phenyl-1,3-thiazol-2-yl)-1H-pyrrol-1-yl]acetamide] the EC50 ([1]; Plasmodium falciparum, DD2, 72 h) was 1.7 ± 0.038 µM, the “reduction of activity relative to 2” value [2] was 2 fold and the EC50 ([2]; Plasmodium falciparum, 3D7) was 2.8 ± 0.17 µM.
With `O=C(Cn1cccc1-c1nc(-c2ccccc2)cs1)Nc1cccc(Cl)c1` [compound 10, N-(3-chlorophenyl)-2-[2-(4-phenyl-1,3-thiazol-2-yl)-1H-pyrrol-1-yl]acetamide] the EC50 [1, 3] was 0.98 ± 0.082 µM, the EC50 [2] was 1.6 ± 0.33 µM and the “activity of analogs relative to parent 2 or 3 (in words)” value [2] was “activity was restored”.
With `O=C(Cn1cccc1-c1nc(-c2ccc(Cl)cc2)cs1)N1CCc2ccccc21` [compound 11, 2-(2-(4-(4-chlorophenyl)-1,3-thiazol-2-yl)-1H-pyrrol-1-yl)-1-(2,3-dihydro-1H-indol-1-yl)ethan-1-one] the EC50 [1, 3] was over 30 µM, the EC50 [2] was over 30 µM and the “activity of analogs relative to parent 2 or 3 (in words)” value [2] was “complete loss of activity”.
In the case of `CC(=O)c1cn(C(C)C(=O)NCCn2nc(C)c(Cl)c2C)c2ccccc12` (stereo not drawn) [compound 12, 2-(3-acetyl-1H-indol-1-yl)-N-[2-(4-chloro-3,5-dimethyl-1H-pyrazol-1-yl)ethyl]propenamide], the EC50 [1, 3] is reported as over 30 µM, the EC50 [2] is reported as over 30 µM and the “activity of analogs relative to parent 2 or 3 (in words)” value [2] is reported as “loss of activity”.
`O=C(Cn1ccc2ccccc21)NCCn1cccn1` [compound 13, 2-(1H-indol-1-yl)-N-[2-(1H-pyrazol-1-yl)ethyl]acetamide] was tested, and the EC50 [1, 3] was over 30 µM, the EC50 [2] was over 30 µM and the “activity of analogs relative to parent 2 or 3 (in words)” value [2] was “loss of activity”.
`Cc1cc(N)n(CC(=O)NCCn2c(C)cc3ccccc32)n1` [compound 14, 2-(5-amino-3-methyl-1H-pyrazol-1-yl)-N-[2-(2-methyl-1H-indol-1-yl)ethyl]acetamide] was tested, and the EC50 [1, 3] was over 30 µM, the EC50 [2] was over 30 µM and the “activity of analogs relative to parent 2 or 3 (in words)” value [2] was “loss of activity”.
